The nature of the test: Heavy metal (ferrous ion-Ferrozine) chelation assay. The test is classed as biochemical. To be noted: Fe2+ chelation; calculated based on unpreserved extract dry weight. How it is done:
The IC50 refers to the amount of extract required to chelate 50% of the available iron (II) in the assay. The lower the number, the higher the chelation power of an extract.
The ability of Inula extract to act as an anti-pollutant or antagonist of the adverse effects of pollutants and/or toxins in pollutants was further investigated in heavy metal chelation assays. Further to this objective, Inula extracts was tested in in vitro assay to assess its chelator power. In this assay, the ferrous ion is used as a model for heavy metals. The concentration of the ferrous iron-Ferrozine complex was measured by spectrophotometry (absorbance at 562 nm) to determine the Fe 2+-chelating ability of the extract or fraction. The reaction mixture, containing 2 Mm FeCl2 and 5 mM ferrozine was adjusted to 2 ml with bi-distilled water. The mixture was shaken and incubated for 10 min at room temperature. The absorbance of the mixture was measured at 562 nm against a blank EDTA was used as positive control. The choice of an internal reference may be adjusted in accordance with the heavy metal assay performed and such references are known in the art. Chelating power is expressed as an IC50 value (mg/ml) and reflects the concentration at which 50% of the available iron was chelated by, for example, supplemental extract added to the assay mix.

`O=C(O)CN(CCN(CC(=O)O)CC(=O)O)CC(=O)O` [EDTA (reference), EDTA]: the “IC50* (mg/ml DRY WEIGHT)” value is given as 0.038 mg/ml DRY WEIGHT.

Source of the values: US20210060108A1, “INULA HELENIUM EXTRACTS FOR TREATING AND PREVENTING POLLUTION RELATED DAMAGE” (priority 2017, published 2021).
